Test results as given in US20060281755A1, “SYNERGISTIC MODULATION OF FLT3 KINASE USING AMINOPYRIMIDINES KINASE MODULATORS” (priority 2005, published 2006).

Columns and labels:
MV4-11 cells = experiment: Inhibition of MV4-11 cell proliferation (CellTiterGlo); details: Homo sapiens, MV4-11, 72 h, read-out: MV4-11 (uM)
Description: To measure total cell growth an equal volume of CellTiterGlo reagent was added to each well, according to the manufacturer's instructions, and luminescence was quantified.
MV4-11 cells express the FLT3 internal tandem duplication mutation, and thus are entirely dependent upon FLT3 activity for growth. […] In contrast, the Baf3 cell proliferation is driven by the cytokine IL-3 and thus are used as a non-specific toxicity control for test compounds.

[1] = biological target: T1, isolated kinase domain of the human FLT3 receptor (a.a. 571-993) (Homo sapiens, UniProt P36888); experiment: FLT3 fluorescence polarization kinase assay; assay type: biochemical; details: uncertainty ±10%
T1 construct: human FLT3 receptor (a.a. 571-993)
T1 sequence (P36888 571-993): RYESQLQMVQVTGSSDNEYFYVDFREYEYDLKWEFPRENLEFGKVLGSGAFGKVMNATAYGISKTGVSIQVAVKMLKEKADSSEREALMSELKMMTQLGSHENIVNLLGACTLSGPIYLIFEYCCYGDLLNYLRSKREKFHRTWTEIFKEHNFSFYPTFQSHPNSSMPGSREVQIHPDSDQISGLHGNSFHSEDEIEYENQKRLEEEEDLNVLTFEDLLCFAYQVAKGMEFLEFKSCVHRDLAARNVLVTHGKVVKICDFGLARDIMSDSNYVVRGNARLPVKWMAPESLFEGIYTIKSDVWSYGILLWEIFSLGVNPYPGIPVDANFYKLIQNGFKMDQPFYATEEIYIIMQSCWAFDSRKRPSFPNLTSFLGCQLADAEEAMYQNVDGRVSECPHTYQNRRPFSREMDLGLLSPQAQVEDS
Description: The FLT3 FP assay utilizes the fluorescein-labeled phosphopeptide and the anti-phosphotyrosine antibody included in the Panvera Phospho-Tyrosine Kinase Kit (Green) supplied by Invitrogen. When FLT3 phosphorylates polyGlu4Tyr, the fluorescein-labeled phosphopeptide is displaced from the anti-phosphotyrosine antibody by the phosphorylated poly Glu4Tyr, thus decreasing the FP value. […] The kinase reaction is stopped with the addition of EDTA. The fluorescein-labeled phosphopeptide and the anti-phosphotyrosine antibody are added and incubated for 30 minutes at room temperature.

[2] = biological target: T2, FLT ligand-induced wild-type FLT3 phosphorylation in Baf3 FLT3 cells (Homo sapiens, UniProt P36888); experiment: Cell-based FLT3 receptor ELISA
T2 sequence (P36888 27-993): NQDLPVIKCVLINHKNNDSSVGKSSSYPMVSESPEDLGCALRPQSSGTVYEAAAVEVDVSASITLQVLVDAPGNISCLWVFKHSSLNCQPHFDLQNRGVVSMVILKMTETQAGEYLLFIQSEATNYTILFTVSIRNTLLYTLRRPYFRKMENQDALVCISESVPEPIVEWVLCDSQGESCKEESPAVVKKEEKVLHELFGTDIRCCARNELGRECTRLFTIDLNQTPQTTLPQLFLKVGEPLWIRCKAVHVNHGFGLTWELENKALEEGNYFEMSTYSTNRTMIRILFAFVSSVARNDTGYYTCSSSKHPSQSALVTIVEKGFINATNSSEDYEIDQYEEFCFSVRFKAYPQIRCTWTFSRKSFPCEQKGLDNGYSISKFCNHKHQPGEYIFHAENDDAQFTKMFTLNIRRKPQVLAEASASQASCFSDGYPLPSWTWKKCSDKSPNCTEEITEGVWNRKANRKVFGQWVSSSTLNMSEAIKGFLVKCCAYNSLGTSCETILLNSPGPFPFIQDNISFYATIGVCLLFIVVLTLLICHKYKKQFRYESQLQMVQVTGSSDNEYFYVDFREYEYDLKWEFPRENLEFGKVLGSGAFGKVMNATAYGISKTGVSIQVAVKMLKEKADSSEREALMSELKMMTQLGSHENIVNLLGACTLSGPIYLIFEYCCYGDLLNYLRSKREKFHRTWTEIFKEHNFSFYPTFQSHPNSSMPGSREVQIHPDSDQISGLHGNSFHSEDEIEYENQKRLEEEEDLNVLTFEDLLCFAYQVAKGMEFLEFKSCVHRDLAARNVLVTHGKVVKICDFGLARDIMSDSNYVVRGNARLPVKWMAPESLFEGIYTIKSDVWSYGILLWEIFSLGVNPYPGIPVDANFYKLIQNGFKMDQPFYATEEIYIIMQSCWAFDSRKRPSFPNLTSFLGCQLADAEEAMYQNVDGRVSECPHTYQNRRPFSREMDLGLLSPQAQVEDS
Description: Specific cellular inhibition of FLT ligand-induced wild-type FLT3 phosphorylation was measured in the following manner: Baf3 FLT3 cells overexpressing the FLT3 receptor were obtained from Dr. Michael Heinrich (Oregon Health and Sciences University).

SMILES	IC50 (MV4-11 cells) [µM]	IC50 [1] [nM]	IC50 [2] [nM]
Nc1ncnc(N2CCN(C(=O)Nc3ccc(N4CCOCC4)cc3)CC2)c1/C=N/OCCN1CCOCC1 [Compound 29, 4-{6-Amino-5-[(2-morpholin-4-yl-ethoxyimino)-methyl]-pyrimidin-4-yl}-piperazine-1-carboxylic acid (4-morpholin-4-yl-phenyl)-amide]	3	> 10000	
NCCO/N=C/c1c(N)ncnc1N1CCN(C(=O)Nc2ccc(N3CCOCC3)cc2)CC1 [Compound 32, 4-{6-Amino-5-[(2-amino-ethoxyimino)-methyl]-pyrimidin-4-yl}-piperazine-1-carboxylic acid (4-morpholin-4-yl-phenyl)-amide]	0.79	5150	77
CCNC(=O)NCCO/N=C/c1c(N)ncnc1N1CCN(C(=O)Nc2ccc(OC(C)C)cc2)CC1 [Compound 26, 4-(6-Amino-5-{[2-(3-ethyl-ureido)-ethoxyimino]-methyl}-pyrimidin-4-yl)-piperazine-1-carboxylic acid (4-isopropoxy-phenyl)-amide]	> 1		
NCCO/N=C/c1c(N)ncnc1N1CCN(C(=O)Nc2ccc(N3CCCC3)cc2)CC1 [Compound 34, 4-{6-Amino-5-[(2-amino-ethoxyimino)-methyl]-pyrimidin-4-yl}-piperazine-1-carboxylic acid (4-pyrrolidin-1-yl-phenyl)-amide]	2.5	1510	
CS(=O)(=O)NCCO/N=C/c1c(N)ncnc1N1CCN(C(=O)Nc2ccc(OC3CCC3)nc2)CC1 [Compound 33, 4-{6-Amino-5-[(2-methanesulfonylamino-ethoxyimino)-methyl]-pyrimidin-4-yl}-piperazine-1-carboxylic acid (6-cyclobutoxy-pyridin-3-yl)-amide]	2.8	1150	
CCO/N=C/c1c(N)ncnc1N1CCN(C(=O)Nc2ccc(N3CCOCC3)cc2)CC1 [Compound 15, 4-[6-Amino-5-(ethoxyimino-methyl)-pyrimidin-4-yl]-piperazine-1-carboxylic acid (4-morpholin-4-yl-phenyl)-amide]	0.35	126	735
CO/N=C/c1c(N)ncnc1N1CCN(C(=O)Cc2ccc(C(C)C)cc2)CC1 [Compound 7, 4-Amino-6-{4-[2-(4-isopropyl-phenyl)-acetyl]-piperazin-1-yl}-pyrimidine-5-carbaldehyde O-methyl-oxime]	0.024	14	2
NCCO/N=C/c1c(N)ncnc1N1CCN(C(=O)Nc2ccc(OC3CCC3)nc2)CC1 [Compound 31, 4-{6-Amino-5-[(2-amino-ethoxyimino)-methyl]-pyrimidin-4-yl}-piperazine-1-carboxylic acid (6-cyclobutoxy-pyridin-3-yl)-amide]	1.3	1450	206
CCO/N=C/c1c(N)ncnc1N1CCN(C(=O)Cc2ccc(C(C)C)cc2)CC1 [Compound 13, 4-Amino-6-{4-[2-(4-isopropyl-phenyl)-acetyl]-piperazin-1-yl}-pyrimidine-5-carbaldehyde O-ethyl-oxime (anti-configuration for —C═N—O—)]	0.013	8	116
Nc1ncnc(N2CCN(C(=O)Nc3ccc(OC4CCC4)nc3)CC2)c1/C=N/OCCN1CCOCC1 [Compound 30, 4-{6-Amino-5-[(2-morpholin-4-yl-ethoxyimino)-methyl]-pyrimidin-4-yl}-piperazine-1-carboxylic acid (6-cyclobutoxy-pyridin-3-yl)-amide]	2.5	1740	
CCO/N=C\c1c(N)ncnc1N1CCN(C(=O)Cc2ccc(C(C)C)cc2)CC1 [Compound 14, 4-Amino-6-{4-[2-(4-isopropyl-phenyl)-acetyl]-piperazin-1-yl}-pyrimidine-5-carbaldehyde O-ethyl-oxime (syn-configuration for —C═N—O—)]	0.029	24	158
CC(C)Oc1ccc(NC(=O)N2CCN(c3ncnc(N)c3/C=N/OCCN)CC2)cc1 [Compound 25, 4-{6-Amino-5-[(2-amino-ethoxyimino)-methyl]-pyrimidin-4-yl}-piperazine-1-carboxylic acid (4-isopropoxy-phenyl)-amide]	2	1150	
CO/N=C/c1c(N)ncnc1N1CCCN(C(=O)Nc2ccc(OC(C)C)cc2)CC1 [Compound 24, 4-[6-Amino-5-(methoxyimino-methyl)-pyrimidin-4-yl]-[1,4]diazepane-1-carboxylic acid (4-isopropoxy-phenyl)-amide]	0.66	122	16
